In assay [1] the test system is NL4-3 strain in CDK8/CDK19 knockdown cells. In words: NL4-3 infection of CDK8/CDK19 knockdown HeLa CD4 cells. It counts as cell-based, HIV-1. The following applies: dCA 200 nM, CDK8, CDK19 or CDK8/CDK19 knockdown; viral mRNA and p24. As for the experimental part: The only other known ligand for dCA is CDK8. […] As such, virus-like particles (VLPs) expressing short hairpin RNAs (shRNAs) against CDK8, CDK19, CDK8/CDK19, or the shRNA control were transduced into HeLa CD4 cells. Stabilization of the knockdown was performed by puromycin selection of the populations over a 2-week period. Both RT-qPCR and Western blotting confirmed successful knockdown of CDK8/CDK19 proteins (Fig. 4A and B). These cells were then infected with NL4-3 and treated or not with dCA, and production of viral RNA and p24 in the supernatant were assessed 72 hours later. […]
HeLa CD4 cells were transduced with VLPs expressing shRNAs against CDK8, CDK19, or both and puromycin selected to stabilize knockdown (KD). […], mRNA, DNA, and p24 capsid in supernatant were collected and measured. (A and B) CDK8 mRNA and CDK19 mRNA expression was assessed by qRT-PCR and normalized to GAPDH mRNA. […] (C) Protein expression of CDK8 and CDK19 was analyzed 72 hours postinfection by Western blotting. […] (D) Viral mRNA production measured by qRT-PCR using primers against the Nef region was measured as a function of total integrated proviral DNA. […] Statistical significance was determined using one-way ANOVA with post hoc Tukey’s test. ns, not significant; ns^a, DMSO KD CDK19 versus dCA KD CDK19. *, P < 0.01; ***, P < 0.0001; **, P < 0.001. […]

The subject of assay [2] is Tat transactivation activity. In words: Transactivation assay (luciferase) in HeLa-CD4-LTR-Luc cells transfected with FLAG-Tat. It is filed as cell-based, HIV-1. The following applies: 25 nM, 48 h. The method, then: Supplementary file : FIG S9 Tat-TAR interaction blocked by dCA in HeLa-CD4-LTR-Luc cells. (A) Transactivation assays. HeLa-CD4-LTR-Luc cells, transfected with Tat or Tat Mut, were incubated with the indicated compounds (dCA and raltegravir [“Ralt.”], 25 nM) or DMSO. Forty-eight hours later, cells were lysed and cross-linked, and luciferase activity relative to the Bradford assay or ChIP TAR RNA (Fig. 6D) was determined. Data are the mean ± SD from n = 3 independent experiments. (B) Western blot of the amount of FLAG-Tat bound to FLAG-tagged beads after elution of the samples for ChIP TAR RNA, as control input. The input of FLAG-Tat and GAPDH as a loading control. Data are representative of n = 3 independent experiments. Statistical significance was determined using one-way ANOVA with post hoc Tukey’s test, comparing DMSO to the other conditions. ***, P < 0.0001. Download FIG S9, PDF file, 0.2 MB.
Chromatin was immunoprecipitated with an anti-FLAG antibody, and qRT-PCR was performed to detect the presence of chromatin-coding TAR (Fig. 6D).
Chromatin immunoprecipitation assay (CHIP). HeLa-CD4-LTR-Luc cells (4×10^6) were transfected with different constructs (PGK-FLAG Tat and PGK-FLAG Tat Mut). […] The relative proportions of co-immunoprecipitated DNA were determined on the basis of the threshold cycle for qRT-PCR. […]

In the case of `CN(C)C1CC23CCC4(O2)C(=CCC2(C)C(c5ccc6ccncc6c5)=CCC24)C=C3C(O)C1O` (centres unmarked) [dCA, didehydro-cortistatin A], in assay [1], the “dependence of anti-HIV activity on CDK8” value was “does not mediate its anti-HIV activity through CDK8 inhibition”. Further, the “Tat transactivation activity (luciferase), transfected FLAG-Tat” value in assay [2] is on record as “inhibited Tat transactivation activity”.
